Bridge positions count the residues as written; N and C are the ends. Square brackets hold non-standard residues; d marks the D form. Peptide text beside a SMILES is read from it. NMeF = CN[C@@H](Cc1ccccc1)C(=O)O; Sar = CNCC(=O)O
Experiments:
[1] = Stability in human serum assessed as compound degradation incubated for 22 hrs by LC-MS/MS method; format: ADME, cell-free
[2] = target: T1, High affinity nerve growth factor receptor (Homo sapiens, UniProt P04629); test: Inhibition of human TrkA assessed as beta-galactosidase activity pretreated with NGF followed by […] and measured after 180 mins by pathhunter assay
[3] = AUC in Sprague-Dawley rat at 1 umol/kg, iv administered as cassette dose measured upto 6 hrs by LC-MS/MS method; format: ADME, organism-based; settings: in vivo, dose 1 µmol/kg
[4] = Stability in rat serum assessed as half-life incubated for 22 to 24 hrs by LC-MS/MS method; format: ADME, cell-free; settings: time 22-24 hrs
[5] = Total clearance in Sprague-Dawley rat at 1 umol/kg, iv administered as cassette dose measured upto 6 hrs by LC-MS/MS method; format: ADME, organism-based; settings: in vivo, dose 1 µmol/kg
[6] = Stability in human serum assessed as half-life incubated for 22 to 24 hrs by LC-MS/MS method; format: ADME, cell-free; settings: time 22-24 hrs
Rattus norvegicus [7] = test: Analgesic activity in rat Brennan's incision pain model assessed as reduction in pain at 30 mg/kg, iv administered 3 times at every 2 hrs and measured after 6 hrs; format: functional; set-up: scale not given: the % may be the effect or the level left
[8] = Toxicity in rat at 30 mg/kg, iv administered 3 times at every 2 hrs and measured after 6 hrs; format: organism-based; settings: in vivo
Rattus norvegicus [9] = test: Analgesic activity in iv dosed rat Brennan's incision pain model assessed as reduction in pain administered 3 times at every 2 hrs and measured after 6 hrs; format: functional, organism-based; settings: dose 3-30 mg/kg
Rattus norvegicus [10] = test: Analgesic activity in rat Brennan's incision pain model assessed as reduction in pain at 10 mg/kg, iv administered 3 times at every 2 hrs and measured after 6 hrs; format: functional, organism-based
[11] = target: T1, High affinity nerve growth factor receptor; test: Binding affinity to Fc-tagged human TrkA extracellular domain by SPR method
[12] = Inhibition of Fc-tagged human TrkA extracellular domain to biotinylated human NGF protein-protein interaction preincubated for 1 hr followed by NGF addition and measured after 3 hrs by ELISA

T1 sequence (P04629 whole entry): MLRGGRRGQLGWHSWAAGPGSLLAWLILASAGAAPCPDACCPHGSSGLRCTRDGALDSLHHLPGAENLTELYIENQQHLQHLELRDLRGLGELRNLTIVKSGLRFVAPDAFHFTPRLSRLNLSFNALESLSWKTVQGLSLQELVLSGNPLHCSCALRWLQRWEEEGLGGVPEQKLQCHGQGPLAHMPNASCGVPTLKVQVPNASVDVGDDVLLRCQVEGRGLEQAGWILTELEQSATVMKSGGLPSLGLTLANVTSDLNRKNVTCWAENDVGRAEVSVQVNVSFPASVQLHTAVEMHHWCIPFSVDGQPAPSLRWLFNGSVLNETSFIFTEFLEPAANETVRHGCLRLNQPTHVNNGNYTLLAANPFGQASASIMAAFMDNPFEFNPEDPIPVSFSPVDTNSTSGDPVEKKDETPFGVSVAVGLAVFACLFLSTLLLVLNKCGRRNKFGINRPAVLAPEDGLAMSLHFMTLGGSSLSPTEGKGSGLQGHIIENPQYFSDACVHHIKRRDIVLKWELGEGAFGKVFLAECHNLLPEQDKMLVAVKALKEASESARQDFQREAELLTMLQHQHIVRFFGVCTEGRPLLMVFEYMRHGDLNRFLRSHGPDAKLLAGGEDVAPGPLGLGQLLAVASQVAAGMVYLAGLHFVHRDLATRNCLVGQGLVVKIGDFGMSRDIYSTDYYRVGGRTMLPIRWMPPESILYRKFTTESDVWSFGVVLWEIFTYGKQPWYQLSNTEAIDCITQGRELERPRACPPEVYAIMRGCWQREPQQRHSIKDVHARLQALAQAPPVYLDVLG

Stability [1] | IC50 [2] | half-life [4] | Kd [11] | IC50 [12] | Compound | AUC at 6 h [3] | clearance [5] | half-life [6] | Activity (Rattus norvegicus [7]) | Activity [8] | Activity (Rattus norvegicus [9]) | Activity (Rattus norvegicus [10])
Unstable | 23 nM | 11.3 h |  |  | CC(C)C[C@@H]1NC(=O)[C@H](CCCNC(=N)N)NC(=O)CNC(=O)[C@H](Cc2ccccc2)N(C)C(=O)CNC(=O)[C@H](Cc2c[nH]c3ccccc23)NC(=O)[C@H](Cc2ccc(O)cc2)NC(=O)[C@H](CO)NC(=O)[C@H](C(C)C)NC(=O)[C@H](CO)NC(=O)[C@H](CCCCN)NC(=O)[C@H](Cc2ccccc2)NC(=O)CSC[C@@H](C(=O)N(C)CC(N)=O)NC(=O)[C@H](Cc2c[nH]cn2)NC(=O)[C@H](CC(N)=O)NC(=O)[C@H](Cc2ccc(O)cc2)NC(=O)[C@H](Cc2ccc(O)cc2)NC(=O)[C@H](CO)NC1=O ({CH2CO}-FKSVSYWG[NMeF]GRLSYYNHC[Sar]-NH2; thioether N-18) | 0.305 µM·h | 66.2 mL/min/kg |  |  |  |  | 
 | 425 nM | 47.8 h | 15.9 nM | 10.8 nM | CC(C)C[C@@H]1NC(=O)[C@H](CC(N)=O)NC(=O)CNC(=O)[C@H](Cc2ccccc2)N(C)C(=O)CNC(=O)[C@H](Cc2c[nH]c3ccccc23)NC(=O)[C@H](Cc2ccc(O)cc2)NC(=O)[C@H](CO)NC(=O)[C@H](C(C)C)NC(=O)[C@H](CO)NC(=O)[C@H](CO)NC(=O)[C@H](Cc2ccccc2)NC(=O)CSC[C@@H](C(=O)NCC(N)=O)NC(=O)[C@H](Cc2c[nH]cn2)NC(=O)[C@H](CO)NC(=O)[C@H](Cc2ccc(O)cc2)NC(=O)[C@H](Cc2c[nH]c3ccccc23)NC(=O)[C@H](C(C)C)NC1=O ({CH2CO}-FSSVSYWG[NMeF]GNLVWYSHCG-NH2; thioether N-18) |  |  | 9.3 h |  |  |  | 

Compound | Stability [1] | IC50 [2] | half-life [4] | Kd [11] | IC50 [12] | AUC at 6 h [3] | clearance [5] | half-life [6] | Activity (Rattus norvegicus [7]) | Activity [8] | Activity (Rattus norvegicus [9]) | Activity (Rattus norvegicus [10])
CC(C)C[C@@H]1NC(=O)[C@H](C(C)C)NC(=O)CNC(=O)[C@H](Cc2ccccc2)N(C)C(=O)CNC(=O)[C@H](Cc2c[nH]cn2)NC(=O)[C@H](Cc2ccc(O)cc2)NC(=O)[C@H](CCC(=O)O)NC(=O)[C@H](C(C)C)NC(=O)[C@H](CO)NC(=O)[C@H](CO)NC(=O)[C@H](Cc2ccccc2)NC(=O)CSC[C@@H](C(=O)NCC(N)=O)NC(=O)[C@H](Cc2c[nH]cn2)NC(=O)[C@H](CC(=O)O)NC(=O)[C@H](Cc2ccc(O)cc2)NC(=O)[C@H](Cc2c[nH]c3ccccc23)NC(=O)[C@H](C(C)C)NC1=O ({CH2CO}-FSSVEYHG[NMeF]GVLVWYDHCG-NH2; thioether N-18) |  | 21 nM | > 72 h |  |  | 1.2 µM·h | 13.9 mL/min/kg | > 72 h | 40% | Non-toxic | Dose-dependent-effect | Active; Activity Comparable To 1 Mg/Kg Morphine

Reference: ChEMBL document CHEMBL6083183, “Discovery and Hit to Lead Optimization of Macrocyclic Peptides as Novel Tropomyosin Receptor Kinase A Antagonists” (J Med Chem, 2024)
